Test results: US9994552B2, “Compositions useful for treating disorders related to kit” (BLUEPRINT MEDICINES CORPORATION, priority 2013, dated 2018)

Tests used:
wild type Kit = wild type Kit (Homo sapiens (Human), UniProt P10721); experiment: Kit wild type assay at Km (Caliper electrophoretic mobility shift); type: biochemical; details: wild type Kit 2 nM, 400 uM ATP (Km), 1 uM Srctide, 25 C, 90 minutes; read-out: INH-KITWT ENZ-KM IC50 (nM) (Num)
Method: (§1) In order to assess the activity of chemical compounds against the relevant kinase of interest, the Caliper LifeSciences electrophoretic mobility shift technology platform is used. Fluorescently labeled substrate peptide is incubated in the presence of kinase and ATP so that a […] proportion of the peptide is phosphorylated. At the end of the reaction, the mix of phosphorylated (product) and non-phosphorylated (substrate) peptides are passed through the microfluidic system of the Caliper EZ Reader 2, under an applied potential difference. The presence of the phosphate group on the product peptide provides a difference in mass and charge between those of the substrate peptide, resulting in a separation of the substrate and product pools in the sample. As the pools pass a LEDS within the instrument, these pools are detected and resolved as separate peaks. The ratio between these peaks therefore reflects the activity of the chemical matter at that concentration in that well, under those conditions.
(§2) The reaction was stopped by the addition of 70 ul of Stop buffer (100 mM HEPES pH 7.5, 0.015% Brij 35, 35 mM EDTA and 0.2% of Coating Reagent 3 (Caliper Lifesciences)). The plate was then read on a Caliper EZReader 2 (protocol settings: −1.9 psi, upstream voltage −700, downstream voltage −3000, post sample sip 35 s).

D816V Kit = D816V Kit (Homo sapiens (Human), UniProt P10721, D816V); experiment: Kit D816V assay at Km (Caliper electrophoretic mobility shift); type: biochemical; details: for IC50: D816V Kit 0.5 nM, 15 uM ATP (Km), 1 uM Srctide, 25 C, 90 minutes, read-out: INH-KITD816V ENZ-KM IC50 (nM) (Num); for times more potent against the D816V mutant than against the wild-type Kit: D816V Kit versus wild-type Kit, enzyme assays at Km
Method: as §1, §2

Chain of wild type Kit (P10721 26-976): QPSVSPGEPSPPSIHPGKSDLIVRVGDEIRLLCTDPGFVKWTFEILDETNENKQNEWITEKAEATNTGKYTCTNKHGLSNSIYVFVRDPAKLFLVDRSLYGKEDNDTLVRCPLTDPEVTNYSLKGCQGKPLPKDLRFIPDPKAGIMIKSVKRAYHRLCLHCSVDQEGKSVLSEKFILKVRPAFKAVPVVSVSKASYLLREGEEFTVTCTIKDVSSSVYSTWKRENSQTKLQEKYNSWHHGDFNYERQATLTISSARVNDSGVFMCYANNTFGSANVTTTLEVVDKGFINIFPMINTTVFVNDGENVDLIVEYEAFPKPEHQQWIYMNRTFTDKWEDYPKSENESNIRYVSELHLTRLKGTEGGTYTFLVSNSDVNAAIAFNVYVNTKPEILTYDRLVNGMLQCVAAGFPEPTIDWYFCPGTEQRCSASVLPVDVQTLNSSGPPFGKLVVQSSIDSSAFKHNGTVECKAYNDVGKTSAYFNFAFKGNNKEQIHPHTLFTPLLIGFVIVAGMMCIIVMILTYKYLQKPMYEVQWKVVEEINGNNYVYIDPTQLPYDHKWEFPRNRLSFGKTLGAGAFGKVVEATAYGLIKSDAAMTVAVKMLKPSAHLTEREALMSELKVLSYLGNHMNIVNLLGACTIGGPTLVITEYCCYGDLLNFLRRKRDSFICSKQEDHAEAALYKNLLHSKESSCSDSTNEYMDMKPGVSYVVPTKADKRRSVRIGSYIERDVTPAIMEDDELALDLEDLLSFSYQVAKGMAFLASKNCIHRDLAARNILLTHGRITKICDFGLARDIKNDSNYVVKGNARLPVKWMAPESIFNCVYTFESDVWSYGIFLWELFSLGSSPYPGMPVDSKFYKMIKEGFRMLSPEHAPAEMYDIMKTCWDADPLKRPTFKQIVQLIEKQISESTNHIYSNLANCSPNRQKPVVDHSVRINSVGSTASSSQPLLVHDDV
Chain of D816V Kit (P10721 26-976 D816V): as the sequence (P10721 26-976) above, with D791V counted along it

SMILES | IC50 (wild type Kit) [nM] | IC50 (D816V Kit) [nM] | times more potent against the D816V mutant than against the wild-type Kit (D816V Kit)
COc1cc2ncnc(N3CCN(c4ncc(OCc5ccc(C(F)(F)F)cc5)cn4)CC3)c2cc1OC [Compound 102, 6,7-dimethoxy-4-(4-(5-((4-(trifluoromethyl)benzyl)oxy)pyrimidin-2-yl)piperazin-1-yl)quinazoline] | > 1000 | > 100 | –
CN1CCC(COc2ccc3ncnc(N4CCN(c5ncc(Cc6ccccc6)c(=O)[nH]5)CC4)c3c2)CC1 [Compound 100] | 100 to 1000 | 1.01 to 10 | –
COc1cc2ncnc(N3CCN(c4ncc(OCc5ccccc5)cn4)CC3)c2cc1OC [Compound 37, 4-(4-(5-(benzyloxy)pyrimidin-2-yl)piperazin-1-yl)-6,7-dimethoxyquinazoline] | 100 to 1000 | 1.01 to 10 | –
COc1cc2ncnc(N3CCN(c4ncc(N5CCc6ccccc65)cn4)CC3)c2cc1OC [Compound 49] | 100 to 1000 | 10 to 100 | –
COc1cc2ncnc(N3CCN(c4ncc(Cc5ccc(C#N)cc5)cn4)CC3)c2cc1OC [Compound 45] | 100 to 1000 | 1.01 to 10 | –
COc1cc2ncnc(N3CCN(c4ncc(OCc5ccc(C#N)cc5)cn4)CC3)c2cc1OC [Compound 73] | > 1000 | > 100 | at least 100 times
CCOc1cc2ncnc(N3CCN(c4ncc(Cc5ccccc5)c(=O)[nH]4)CC3)c2cc1OCC1CCN(C)CC1 [Compound 138] | < 10 | < 1 | less than 5 times
COc1cc2ncnc(N3CCN(c4ncc(NCc5ccc6c(c5)OCO6)cn4)CC3)c2cc1OC [Compound 83] | – | > 100 | –
COc1cc2ncnc(N3CCN(c4ncc(-c5ccc(C#N)cc5)cn4)CC3)c2cc1OC [Compound 19] | > 1000 | > 100 | less than 5 times
COc1cc2ncnc(N3CCN(c4ncc(Cc5ccccc5)cn4)CC3)c2cc1OC[C@H]1CCCN(C)C1 [Compound 115] | 11 to 100 | 1.01 to 10 | –
COc1cccc(Cc2cnc(N3CCN(c4ncnc5cc(OC)c(OC)cc45)CC3)nc2)c1 [Compound 57] | 11 to 100 | < 1 | at least 100 times
COc1cc2ncnc(N3CCN(c4ncc(Cc5ccccc5)cn4)CC3)c2cc1OCCN1CCCC1=O [Compound 110] | 11 to 100 | < 1 | –
COc1cc2ncnc(N3CCN(c4ncc(Cc5ccccc5)cn4)C[C@H]3C)c2cc1OC [Compound 28] | > 1000 | > 100 | less than 5 times
COc1cc2ncnc(N3CCN(c4ncc(Cc5ccccc5)c(=O)[nH]4)CC3)c2cc1OCC1CN(C)CCO1 (stereo not drawn) [Compound 130] | < 10 | 1.01 to 10 | –
COc1cc2ncnc(N3CCN(c4ncc(Cc5ccccc5)cn4)CC3)c2cc1OC[C@H]1CNCCO1 [Compound 104] | 11 to 100 | < 1 | –
COc1cc2ncnc(N3CCN(c4ncc(Oc5ccccc5)cn4)CC3)c2cc1OC [Compound 14, 6,7-dimethoxy-4-(4-(5-phenoxypyrimidin-2-yl)piperazin-1-yl)quinazoline] | 11 to 100 | 1.01 to 10 | –
COc1cc2ncnc(N3CCN(c4ncc(N(C)Cc5ccccc5)cn4)CC3)c2cc1OC [Compound 52] | 11 to 100 | 1.01 to 10 | –
COc1cc2ncnc(N3CCN(c4ncc(Cc5ccc(OC(F)F)cc5)cn4)CC3)c2cc1OC [Compound 86] | 100 to 1000 | 1.01 to 10 | –
COc1cc2ncnc(N3CCN(c4ncc(Cc5ccccc5)cn4)CC3)c2cc1OCCN1CCN(C)CC1 [Compound 126] | 11 to 100 | 1.01 to 10 | –
COc1ccc2ncnc(N3CCN(c4ncc(OCc5ccccc5)cn4)CC3)c2c1 [Compound 10] | > 1000 | > 100 | –
COc1cc2ncnc(N3CCN(c4ncc(Cc5ccccc5)cn4)CC3)c2cc1OC1CCN(CCO)CC1 [Compound 129] | 11 to 100 | 1.01 to 10 | less than 5 times
COc1cc2ncnc(N3CCN(c4ncc(O[C@H](C)c5ccccc5)cn4)CC3)c2cc1OC [Compound 59] | 100 to 1000 | 1.01 to 10 | –
COc1cc2ncnc(N3CCN(c4ncc(OCc5ccccc5)cn4)C(C)C3)c2cc1OC (stereo not drawn) [Compound 66] | > 1000 | 10 to 100 | –
COc1cc2ncnc(N3CCN(c4ncc(NCc5ccccc5)cn4)CC3)c2cc1OC [Compound 34, N-benzyl-2-(4-(6,7-dimethoxyquinazolin-4-yl)piperazin-1-yl)pyrimidin-5-amine] | 100 to 1000 | 10 to 100 | –
COc1cc2ncnc(N3CCN(c4ncc(Cc5ccccc5)cn4)C(C)C3)c2cc1OC (stereo not drawn) [Compound 26] | 100 to 1000 | 10 to 100 | –
CN1CCC(COc2ccc3ncnc(N4CCN(c5ncc(Cc6ccccc6)cn5)CC4)c3c2)CC1 [Compound 87] | 100 to 1000 | 1.01 to 10 | –
